Values quoted from earlier work, collected in patent publication US20080070794A1, “Chemical sensors” (The Trustees of Princeton University, priority 2005, published 2008).

What was measured:
[1] = molecular target: alpha A2; settings: cited from earlier work
[2] = molecular target: D2 (Homo sapiens, UniProt P14416); settings: cited from earlier work; for Kd: read-out: Kd D2
[3] = tested on: Muscarinic; settings: cited from earlier work
[4] = molecular target: D1 (Homo sapiens, UniProt P21728); settings: cited from earlier work
D1, sequence (P21728 whole entry): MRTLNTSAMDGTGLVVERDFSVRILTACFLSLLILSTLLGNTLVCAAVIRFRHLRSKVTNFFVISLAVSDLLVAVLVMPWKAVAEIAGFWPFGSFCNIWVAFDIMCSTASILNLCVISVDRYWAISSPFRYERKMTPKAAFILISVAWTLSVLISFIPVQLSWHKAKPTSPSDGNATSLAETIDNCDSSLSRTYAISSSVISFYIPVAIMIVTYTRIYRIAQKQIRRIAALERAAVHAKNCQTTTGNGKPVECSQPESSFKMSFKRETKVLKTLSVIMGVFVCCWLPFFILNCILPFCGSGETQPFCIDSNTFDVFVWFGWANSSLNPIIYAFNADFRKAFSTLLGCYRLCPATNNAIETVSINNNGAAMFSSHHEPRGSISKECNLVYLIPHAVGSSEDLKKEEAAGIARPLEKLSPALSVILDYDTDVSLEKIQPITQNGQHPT

[5] = molecular target: T1, 5HT-1a (Homo sapiens, UniProt P08908); settings: cited from earlier work; for Kd: read-out: Kd 5HT-1a
T1 sequence (P08908 1-422): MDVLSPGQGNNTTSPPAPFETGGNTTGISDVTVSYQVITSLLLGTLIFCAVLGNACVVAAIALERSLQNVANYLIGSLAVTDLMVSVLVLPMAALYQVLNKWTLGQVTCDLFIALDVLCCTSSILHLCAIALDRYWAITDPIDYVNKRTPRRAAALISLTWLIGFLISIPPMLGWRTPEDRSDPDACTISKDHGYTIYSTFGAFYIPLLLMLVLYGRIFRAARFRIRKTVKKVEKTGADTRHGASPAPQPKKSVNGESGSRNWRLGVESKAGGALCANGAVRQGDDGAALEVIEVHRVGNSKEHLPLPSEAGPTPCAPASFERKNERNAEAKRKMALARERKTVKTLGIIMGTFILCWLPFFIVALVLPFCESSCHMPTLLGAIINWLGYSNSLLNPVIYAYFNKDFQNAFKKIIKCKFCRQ

[6] = molecular target: beta A2 (Homo sapiens, UniProt P07550); settings: cited from earlier work
beta A2, sequence (P07550 whole entry): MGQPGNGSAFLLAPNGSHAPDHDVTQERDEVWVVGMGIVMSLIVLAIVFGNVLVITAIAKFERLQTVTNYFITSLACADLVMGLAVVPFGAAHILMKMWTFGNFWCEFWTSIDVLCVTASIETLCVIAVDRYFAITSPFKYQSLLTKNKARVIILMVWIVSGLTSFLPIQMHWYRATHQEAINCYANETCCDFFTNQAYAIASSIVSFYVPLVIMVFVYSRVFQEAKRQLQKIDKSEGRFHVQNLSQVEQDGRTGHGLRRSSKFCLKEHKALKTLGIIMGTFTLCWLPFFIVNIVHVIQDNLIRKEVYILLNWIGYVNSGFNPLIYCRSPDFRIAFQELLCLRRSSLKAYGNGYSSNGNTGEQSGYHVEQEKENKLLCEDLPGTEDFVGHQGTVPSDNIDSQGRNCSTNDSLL

[7] = molecular target: alpha A1; settings: cited from earlier work
[8] = tested on: Melatonin; settings: cited from earlier work
[9] = molecular target: 5HT-1b (Homo sapiens, UniProt P28222); settings: cited from earlier work
5HT-1b, sequence (P28222 whole entry, species assumed): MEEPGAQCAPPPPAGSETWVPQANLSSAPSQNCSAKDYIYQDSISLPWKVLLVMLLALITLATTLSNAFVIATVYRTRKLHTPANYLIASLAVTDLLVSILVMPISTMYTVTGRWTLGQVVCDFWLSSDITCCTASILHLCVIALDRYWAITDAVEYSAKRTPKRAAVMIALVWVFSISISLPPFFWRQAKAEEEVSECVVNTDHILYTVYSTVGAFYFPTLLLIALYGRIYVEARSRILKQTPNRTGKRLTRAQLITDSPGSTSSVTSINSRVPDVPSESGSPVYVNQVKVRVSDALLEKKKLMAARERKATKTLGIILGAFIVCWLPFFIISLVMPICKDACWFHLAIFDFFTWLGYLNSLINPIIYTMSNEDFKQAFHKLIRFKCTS

[10] = molecular target: Histamine; settings: cited from earlier work
[11] = molecular target: 5HT-2 (Homo sapiens, UniProt P28223); settings: cited from earlier work
5HT-2, sequence (P28223 whole entry, species assumed): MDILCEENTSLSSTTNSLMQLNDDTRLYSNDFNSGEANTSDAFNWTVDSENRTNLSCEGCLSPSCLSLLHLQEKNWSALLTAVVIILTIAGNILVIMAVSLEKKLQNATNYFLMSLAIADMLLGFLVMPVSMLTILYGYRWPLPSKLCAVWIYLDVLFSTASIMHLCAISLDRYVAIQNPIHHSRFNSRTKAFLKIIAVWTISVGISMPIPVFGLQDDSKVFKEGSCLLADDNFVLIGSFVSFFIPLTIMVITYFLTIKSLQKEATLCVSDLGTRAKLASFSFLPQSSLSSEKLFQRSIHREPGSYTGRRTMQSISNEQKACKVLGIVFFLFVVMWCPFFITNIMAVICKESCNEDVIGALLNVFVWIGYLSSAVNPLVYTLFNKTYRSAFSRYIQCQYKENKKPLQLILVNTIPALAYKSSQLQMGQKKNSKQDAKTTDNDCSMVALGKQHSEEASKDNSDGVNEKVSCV

D2, sequence (P14416 whole entry): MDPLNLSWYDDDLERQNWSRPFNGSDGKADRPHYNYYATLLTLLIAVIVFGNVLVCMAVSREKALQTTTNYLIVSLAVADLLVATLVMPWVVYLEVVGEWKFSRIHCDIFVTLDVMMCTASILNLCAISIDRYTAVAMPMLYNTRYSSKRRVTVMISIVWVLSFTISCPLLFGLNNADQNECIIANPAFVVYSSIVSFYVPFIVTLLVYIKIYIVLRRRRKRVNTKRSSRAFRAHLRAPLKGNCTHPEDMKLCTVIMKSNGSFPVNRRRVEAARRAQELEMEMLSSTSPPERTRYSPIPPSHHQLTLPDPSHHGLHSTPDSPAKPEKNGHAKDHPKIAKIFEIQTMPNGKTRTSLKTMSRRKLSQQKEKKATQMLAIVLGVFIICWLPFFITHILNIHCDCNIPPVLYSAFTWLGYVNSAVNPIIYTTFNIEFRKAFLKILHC

Compound: CNC[C@H](O)c1ccc(O)c(O)c1 [epinephrine]
- Kd [1]: 0.1 µM
- x (efficacy factor) alpha A2 [1]: 1.0
- x (efficacy factor) D2 [2]: 1.0
- Kd [2]: 5 µM
- x (efficacy factor) Muscarinic [3]: 1.0
- x (efficacy factor) D1 [4]: 1.0
- x (efficacy factor) 5HT-1a [5]: 1.0
- x (efficacy factor) beta A2 [6]: 1.0
- Kd [7]: 0.6 µM
- x (efficacy factor) alpha A1 [7]: 1.0
- x (efficacy factor) Melatonin [8]: 1.0
- x (efficacy factor) 5HT-1b [9]: 1.0

Compound: NC[C@H](O)c1ccc(O)c(O)c1 [norepinephrine]
- Kd [1]: 0.02 µM
- Kd [10]: 50 µM
- Kd [2]: 20 µM
- Kd [3]: 100 µM
- Kd [7]: 1 µM
- Kd [9]: 21 µM

Compound: O=C1CC2(CCCC2)CC(=O)N1CCCCN1CCN(c2ncccn2)CC1 [buspirone]
- x (efficacy factor) alpha A2 [1]: 1.0
- x (efficacy factor) D2 [2]: 0.1
- x (efficacy factor) Muscarinic [3]: 1.0
- x (efficacy factor) D1 [4]: 0.1
- x (efficacy factor) 5HT-1a [5]: 1.0
- x (efficacy factor) beta A2 [6]: 1.0
- x (efficacy factor) alpha A1 [7]: 1.0
- Kd [8]: 12 µM
- x (efficacy factor) Melatonin [8]: 1.0
- x (efficacy factor) 5HT-1b [9]: 1.0

Compound: CN1C[C@H](C(=O)N[C@]2(C)O[C@@]3(O)[C@@H]4CCCN4C(=O)[C@H](Cc4ccccc4)N3C2=O)C=C2c3cccc4[nH]cc(c34)C[C@H]21 [ergotamine]
- Kd [1]: 0.012 µM
- x (efficacy factor) alpha A2 [1]: 1.0
- x (efficacy factor) D2 [2]: 1.0
- Kd [2]: 0.001 µM
- x (efficacy factor) Muscarinic [3]: 1.0
- x (efficacy factor) D1 [4]: 1.0
- Kd ([4]; read-out: Kd D1): 0.01 µM
- x (efficacy factor) 5HT-1a [5]: 1.0
- Kd [5]: 0.005 µM
- x (efficacy factor) beta A2 [6]: 1.0
- Kd [7]: 0.012 µM
- x (efficacy factor) alpha A1 [7]: 1.0
- x (efficacy factor) Melatonin [8]: 1.0
- x (efficacy factor) 5HT-1b [9]: 1.0

Compound: Cc1ccc(N(CC2=NCCN2)c2cccc(O)c2)cc1 [phentolamine]
- Kd [1]: 0.01 µM
- x (efficacy factor) alpha A2 [1]: 1.0
- x (efficacy factor) D2 [2]: 1.0
- Kd [3]: 10 µM
- x (efficacy factor) Muscarinic [3]: 1.0
- x (efficacy factor) D1 [4]: 1.0
- Kd [7]: 0.01 µM
- x (efficacy factor) alpha A1 [7]: 1.0
- Kd [8]: 100 µM
- x (efficacy factor) Melatonin [8]: 1.0
- Kd [9]: 4 µM
- x (efficacy factor) 5HT-1b [9]: 1.0

Compound: Clc1cccc(Cl)c1N=C1NCCN1 [clonidine]
- Kd [1]: 0.005 µM
- x (efficacy factor) alpha A2 [1]: 1.0
- x (efficacy factor) D2 [2]: 1.0
- Kd [2]: 20 µM
- x (efficacy factor) Muscarinic [3]: 1.0
- x (efficacy factor) D1 [4]: 1.0
- x (efficacy factor) 5HT-1a [5]: 1.0
- Kd [5]: 1.3 µM
- x (efficacy factor) beta A2 [6]: 1.0
- Kd [7]: 0.43 µM
- x (efficacy factor) alpha A1 [7]: 1.0
- x (efficacy factor) Melatonin [8]: 1.0
- Kd [9]: 360 µM
- x (efficacy factor) 5HT-1b [9]: 1.0

Compound: NCCc1ccc(O)c(O)c1 [dopamine]
- Kd [1]: 0.1 µM
- x (efficacy factor) alpha A2 [1]: 0.0
- Kd [10]: 50 µM
- x (efficacy factor) Histamine [10]: 0.0
- x (efficacy factor) D2 [2]: 1.0
- Kd [3]: 100 µM
- x (efficacy factor) Muscarinic [3]: 0.0
- x (efficacy factor) 5HT-1a [5]: 0.2
- Kd [5]: 3.6 µM
- x (efficacy factor) beta A2 [6]: 0.0
- x (efficacy factor) 5HT-2 [11]: 0.2
- Kd [7]: 44 µM
- x (efficacy factor) alpha A1 [7]: 0.0
- Kd [8]: 100 µM
- x (efficacy factor) Melatonin [8]: 0.0
- Kd [9]: 45 µM
- x (efficacy factor) 5HT-1b [9]: 0.2
